Data taken from PubChem BioAssay AID651766 (The Scripps Research Institute Molecular Screening Center, 2012).
Where “and” joins values, the source holds several entries; their conditions need not be identical. Equal values may be shown once. Calls of active or inactive are those of the source. No rule for the calls is given here.

Target: Perilipin-1 (Homo sapiens) + 1-acylglycerol-3-phosphate O-acyltransferase ABHD5 (Homo sapiens) (UniProt O60240+Q8WTS1)
Test: ABHD5-PLIN1 binding inhibitors, late-stage follow-up, counter-screen for ABHD5-PLIN5 interaction inhibitor project, biochemical, luminescence, dose response (AID 651766)

Row | IC50 | SMILES
1 | 9.85 µM | COc1ccccc1-c1cc(C(=O)NC2CCN(C)CC2)c2ccc(Cl)c(C)c2n1
2 | 6.82 µM | CN(C)CCCN(C(=O)CCc1ccccc1)c1nc2ccc(Br)cc2s1
3 | > 39.8 µM (inactive) | COCCN(CCOC)c1nc(N)c2c(N)nc3c(c2c1C#N)CC(=O)N3Cc1ccc(Cl)cc1
4 | inactive | COc1ccc(NC(=S)N(CCCN2CCCC2)Cc2cccn2Cc2ccc(Cl)cc2)cc1Cl
5 | 1.46 µM | CCCCNC(=O)Nc1ccc2c(c1)N(C)C(=O)c1ccccc1S2
6 | 1.36 µM | CC(=O)Cc1cc(O)c2ccccc2c1OC(=O)c1ccccc1
7 | 2.14 µM and 2.18 µM | NC(=NCCCCCCN=C(N)/N=C(\N)Nc1ccc(Cl)cc1)/N=C(\N)Nc1ccc(Cl)cc1
8 | inactive | CCN(CC)CCNC(=O)c1ccc(NC(=O)c2cn(-c3ccccc3)nc2-c2cccs2)cc1
9 | 0.744 µM | CC(CCc1ccco1)NC(=O)CCc1nnc2ccc(NCc3ccccc3Cl)nn12 (stereo unspecified)
10 | 3.72 µM | CCOC(=O)c1c(NC(=O)/C=C/C(=O)O)sc(C)c1-c1ccc(C(C)(C)C)cc1
11 | 1.62 µM | CCOC(=O)c1c(NC(C)=O)sc2c1CCC(C=O)=C2Sc1ccccc1
12 | inactive | COc1cc2c(cc1OC)C(C)N(CCc1ccc(Cl)cc1)CC2 (stereo unspecified)
13 | > 39.8 µM (inactive) | CN1CCC(=C2c3ccccc3CC(=O)c3sccc32)CC1
14 | inactive | C=C[C@]1(C)C[C@@H](OC(=O)CSCCN(CC)CC)[C@]2(C)C(C)CC[C@]3(CCC(=O)[C@H]32)[C@@H](C)[C@@H]1O (stereo partly specified)
15 | 2.38 µM and 1.6 µM | Cc1ccc2c(CC(=O)N3CCN(S(=O)(=O)c4ccc5c(c4)OCCO5)CC3)coc2c1
16 | 1.99 µM | O=c1[nH]c(C2CCN(S(=O)(=O)c3ccc(S(=O)(=O)NC4CC4)cc3)CC2)nc2c1nnn2Cc1ccc(F)cc1
17 | 8.99 µM | FC(F)(F)c1cccc(NC(=S)N(CCCN2CCCC2)Cc2cccn2Cc2ccc(Cl)cc2)c1
18 | 0.496 µM | Cc1ccc2nc3cc([N+](=O)[O-])cc([N+](=O)[O-])c3cc2c1
19 | 1.44 µM | CCN(CC)CCC(C)OC(c1ccccc1)c1ccccc1 (stereo unspecified)
20 | > 39.8 µM (inactive) | CC(=O)Oc1ccc(C23c4ccccc4C2(OC(C)=O)c2cc(OC(C)=O)ccc23)cc1 (stereo unspecified)
21 | 2.53 µM | Cc1cc(C)c2nc(NNC(=O)c3ccc(S(=O)(=O)N4CCCC(C)C4)cc3)sc2c1 (stereo unspecified)
22 | 3.73 µM | CCCNC(=O)Nc1ccc2c(c1)N(C)C(=O)c1ccccc1S2
23 | 1.26 µM | CC(C)c1ccc(N2C=Nc3ccc(C(C)C)cc3C2)cc1

Further lines, the compound ahead of its results:

Row | SMILES | IC50
24 | Cc1cc(C)c(NC(=O)CN2CCN3CCCC3C2)c(C)c1 (stereo unspecified) | inactive
25 | CCOc1cc(N)c(Cl)cc1C(=O)NCC1CN(Cc2ccc(F)cc2)CCO1 (stereo unspecified) | 1.2 µM
26 | CC1CCN(S(=O)(=O)c2ccc(NC(=O)Cc3ccccc3)cc2)CC1 | 3.98 µM
27 | COc1ccc(C)c2sc(N(CCN(C)C)C(=O)/C=C/c3cccs3)nc12 | 7.16 µM
28 | CCCCOC(=O)Nc1cc(C(=O)OC)ccc1C(=O)OC | 3.83 µM
29 | CCN(CC)CCOCCOC(=O)C1(c2ccccc2)CCCC1 | 0.925 µM
30 | CCN(CC)CCOc1ccc(/C(=C(/Cl)c2ccccc2)c2ccccc2)cc1 | 0.983 µM
31 | CC1Sc2ccc(S(=O)(=O)N3CCC(C(=O)NCc4ccc(Cl)cc4)CC3)cc2NC1=O (stereo unspecified) | 4.51 µM
32 | CCN(CC)CCN(CC(=O)Nc1c(C)cc(C)cc1C)C(=O)c1ccccc1 | 7.34 µM
33 | O=c1[nH]c(C2CCN(S(=O)(=O)c3ccc(F)cc3)CC2)nc2c1nnn2Cc1ccc2c(c1)OCCO2 | 8.94 µM
34 | O=C(/C(=C/O)N=Nc1ccc(Cl)cc1)c1ccncc1 | 5.2 µM
35 | CN(C)CCN(Cc1ccco1)c1ccccn1 | > 39.8 µM (inactive)
36 | COc1cc(OC)cc(C(=O)NC(=S)N(Cc2ccccc2)C(C)C)c1 | 1.46 µM
37 | CN(C)CCCN(C(=O)CCc1ccccc1)c1nc2ccc(Cl)cc2s1 | 5.99 µM
38 | Cc1nc2c(o1)CCc1ccccc1C2N1CCN(C)CC1 (stereo unspecified) | 4.16 µM
39 | CC(=O)Nc1ccc(S(=O)(=O)N2c3ccc(F)cc3CCC2C)cc1 (stereo unspecified) | 5.16 µM
40 | Cc1cc(C)c(NC(=O)C[N+](C)(C)CC(O)COc2cccc3ccccc23)c(C)c1 (stereo unspecified) | 4.48 µM
41 | O=C(C[n+]1cccc(CNC(=O)c2ccc(OC(F)F)cc2)c1)Nc1cccc(C(F)(F)F)c1 | inactive
42 | CC(=O)Cc1cc(O)c2ccccc2c1OC(=O)c1ccc(Br)cc1 | 2.04 µM
43 | CC1CCN(S(=O)(=O)c2ccc(NC(=O)Cc3cccs3)cc2)CC1 | 3.54 µM
44 | CC1=CC(C)(C)Nc2ccc(OC(=O)C(C)N3C(=O)c4ccccc4C3=O)cc21 (stereo unspecified) | 2.13 µM
45 | CN(C)CCOC1(Cc2ccc(F)cc2)CCC(C(C)(C)C)CC1 (stereo unspecified) | > 39.8 µM (inactive)
46 | COc1cc(C)c2sc3ccccc3c(=O)c2c1NCCN(C)C | > 39.8 µM (inactive)
